Consider one molecule from article PMC9694544, “Conteltinib (CT-707) in patients with advanced ALK-positive non-small cell lung cancer: a multicenter, open-label, first-in-human phase 1 study” (BMC Medicine, 2022).

One assay has as its target ALK WT (Homo sapiens, UniProt Q9UM73). In words: ALK enzymatic IC50, WT. In kind it is biochemical.
For assay [1], the system named is xenograft models of ALK-positive NSCLC. Conditions: crizotinib-sensitive and crizotinib-resistant tumors; cited from earlier work.

ALK WT, sequence (Q9UM73 19-1620): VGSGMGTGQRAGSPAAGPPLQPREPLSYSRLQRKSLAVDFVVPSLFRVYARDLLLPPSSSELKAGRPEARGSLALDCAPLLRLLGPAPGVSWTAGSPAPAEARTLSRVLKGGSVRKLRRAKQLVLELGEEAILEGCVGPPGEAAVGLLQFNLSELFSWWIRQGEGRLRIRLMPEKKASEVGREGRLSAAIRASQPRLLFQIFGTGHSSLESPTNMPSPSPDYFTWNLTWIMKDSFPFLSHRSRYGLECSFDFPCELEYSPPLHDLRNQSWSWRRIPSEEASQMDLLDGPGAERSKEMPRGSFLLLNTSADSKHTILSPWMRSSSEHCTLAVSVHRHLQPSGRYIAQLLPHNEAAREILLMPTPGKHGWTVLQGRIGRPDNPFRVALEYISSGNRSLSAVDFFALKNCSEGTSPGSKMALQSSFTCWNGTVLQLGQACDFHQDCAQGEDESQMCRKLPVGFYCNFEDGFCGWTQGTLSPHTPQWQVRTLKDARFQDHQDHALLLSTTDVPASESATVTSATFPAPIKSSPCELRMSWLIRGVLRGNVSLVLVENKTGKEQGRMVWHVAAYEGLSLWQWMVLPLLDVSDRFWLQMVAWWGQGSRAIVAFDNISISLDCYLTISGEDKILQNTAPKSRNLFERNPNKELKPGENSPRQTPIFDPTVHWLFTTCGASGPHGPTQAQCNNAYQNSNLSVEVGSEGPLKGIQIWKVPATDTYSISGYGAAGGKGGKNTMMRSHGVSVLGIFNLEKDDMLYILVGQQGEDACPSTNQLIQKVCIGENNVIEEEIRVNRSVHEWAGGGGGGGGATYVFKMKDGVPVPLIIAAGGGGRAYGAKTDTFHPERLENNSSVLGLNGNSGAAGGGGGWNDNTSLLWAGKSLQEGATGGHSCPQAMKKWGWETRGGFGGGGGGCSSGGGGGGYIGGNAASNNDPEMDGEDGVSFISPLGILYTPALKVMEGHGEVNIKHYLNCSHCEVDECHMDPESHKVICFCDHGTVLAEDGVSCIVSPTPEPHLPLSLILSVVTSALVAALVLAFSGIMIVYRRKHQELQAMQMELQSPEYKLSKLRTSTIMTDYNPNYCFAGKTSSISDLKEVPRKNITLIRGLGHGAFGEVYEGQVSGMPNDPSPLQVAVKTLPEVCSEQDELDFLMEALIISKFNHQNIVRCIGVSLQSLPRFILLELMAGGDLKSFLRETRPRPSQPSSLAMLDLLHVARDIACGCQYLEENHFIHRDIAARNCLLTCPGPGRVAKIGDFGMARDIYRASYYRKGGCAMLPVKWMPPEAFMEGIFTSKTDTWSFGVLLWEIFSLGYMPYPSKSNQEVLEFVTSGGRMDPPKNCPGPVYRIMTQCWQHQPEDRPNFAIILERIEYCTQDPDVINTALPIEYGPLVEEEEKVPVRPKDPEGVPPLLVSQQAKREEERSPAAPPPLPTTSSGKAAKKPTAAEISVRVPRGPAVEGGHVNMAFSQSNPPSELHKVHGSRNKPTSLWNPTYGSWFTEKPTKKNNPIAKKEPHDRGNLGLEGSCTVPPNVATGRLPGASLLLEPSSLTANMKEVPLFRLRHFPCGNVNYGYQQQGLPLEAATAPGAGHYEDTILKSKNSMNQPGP

As usually defined, the IC50 is the midpoint of a concentration-inhibition curve. High values mean weaker potency in that assay, low ones greater potency in that assay. `COc1cc(N2CCC(N3CCN(C)CC3)CC2)ccc1Nc1nc2c(c(Nc3ccccc3S(=O)(=O)NC(C)C)n1)CCN2` [Conteltinib] had an IC50 against ALK WT of 1.5 nM. The “anti-tumor activity in xenograft models” value in assay [1] was “marked anti-tumor activity”.
